In the supplement of paper PMC10307832:

Columns and labels:
Assay in all cases: relative viability (nuclei count vs DMSO), 5 days (fraction); higher = more cells survive
Pictilisib + Decitabine = compound: CS(=O)(=O)N1CCN(Cc2cc3nc(-c4cccc5[nH]ncc45)nc(N4CCOCC4)c3s2)CC1 [Pictilisib] + Nc1ncn([C@H]2C[C@H](O)[C@@H](CO)O2)c(=O)n1 [Decitabine] (partner 2 µM)
In short: (§1)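 Each reported value is a median over duplicate plates. It expresses relative viability: treated-well nuclei count divided by vehicle-well nuclei count. Lung cancer cell lines in 1536-well plates were dosed by pin tool a day after seeding, alone with one drug or with a fixed anchor-drug dose plus five library-drug doses (not always all listed) in √10 steps, and nuclei were counted after 5 days.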

MK-2206 + Tozasertib = compound: NC1(c2ccc(-c3nc4ccn5c(=O)[nH]nc5c4cc3-c3ccccc3)cc2)CCC1 [MK-2206] + Cc1cc(Nc2cc(N3CCN(C)CC3)nc(Sc3ccc(NC(=O)C4CC4)cc3)n2)n[nH]1 [Tozasertib] (partner 0.1 µM)
In short: as §1

MK-2206 + Trametinib = compound: NC1(c2ccc(-c3nc4ccn5c(=O)[nH]nc5c4cc3-c3ccccc3)cc2)CCC1 [MK-2206] + CC(=O)Nc1cccc(-n2c(=O)n(C3CC3)c(=O)c3c(Nc4ccc(I)cc4F)n(C)c(=O)c(C)c32)c1 [Trametinib] (partner 0.02 µM)
In short: as §1

MK-2206 + Phenformin = compound: NC1(c2ccc(-c3nc4ccn5c(=O)[nH]nc5c4cc3-c3ccccc3)cc2)CCC1 [MK-2206] + N=C(N)NC(=N)NCCc1ccccc1 [Phenformin] (partner 250 µM)
In short: as §1

MK-2206 + Lapatinib = compound: NC1(c2ccc(-c3nc4ccn5c(=O)[nH]nc5c4cc3-c3ccccc3)cc2)CCC1 [MK-2206] + CS(=O)(=O)CCNCc1ccc(-c2ccc3ncnc(Nc4ccc(OCc5cccc(F)c5)c(Cl)c4)c3c2)o1 [Lapatinib] (partner 2 µM)
In short: as §1

| Cell Line | relative viability (Pictilisib + Decitabine; first compound 0.02 µM) | relative viability (Pictilisib + Decitabine; first compound 0.06325 µM) | relative viability (Pictilisib + Decitabine; first compound 0.6325 µM) | relative viability (Pictilisib + Decitabine; first compound 2 µM) | relative viability (MK-2206 + Tozasertib; first compound 0.01 µM) | relative viability (MK-2206 + Tozasertib; first compound 0.03162 µM) | relative viability (MK-2206 + Tozasertib; first compound 0.3162 µM) | relative viability (MK-2206 + Tozasertib; first compound 1 µM) | relative viability (MK-2206 + Trametinib; first compound 0.01 µM) | relative viability (MK-2206 + Trametinib; first compound 0.03162 µM) | relative viability (MK-2206 + Trametinib; first compound 0.3162 µM) | relative viability (MK-2206 + Trametinib; first compound 1 µM) | relative viability (MK-2206 + Phenformin; first compound 0.01 µM) | relative viability (MK-2206 + Phenformin; first compound 0.03162 µM) | relative viability (MK-2206 + Phenformin; first compound 0.3162 µM) | relative viability (MK-2206 + Phenformin; first compound 1 µM) | relative viability (MK-2206 + Lapatinib; first compound 0.01 µM) | relative viability (MK-2206 + Lapatinib; first compound 0.03162 µM) | relative viability (MK-2206 + Lapatinib; first compound 0.3162 µM) | relative viability (MK-2206 + Lapatinib; first compound 1 µM) |
| --- | --- | --- | --- | --- | --- | --- | --- | --- | --- | --- | --- | --- | --- | --- | --- | --- | --- | --- | --- | --- |
| 201T | 0.869 | 0.83 | 0.675 | 0.843 | 0.962 | 0.931 | 0.98 | 0.948 | 0.688 | 0.753 | 0.743 | 0.724 | 0.446 | 0.417 | 0.42 | 0.52 | 0.988 | 1.12 | 1.02 | 1.12 |
| NCI-H3122 | 0.443 | 0.412 | 0.287 | 0.115 | 0.366 | 0.39 | 0.469 | 0.169 | 0.237 | 0.234 | 0.198 | 0.211 | 0.367 | 0.414 | 0.395 | 0.353 | 1.01 | 1.07 | 1.06 | 1.1 |
| NCI-H838 | 0.474 | 0.492 | 0.381 | 0.371 | 0.286 | 0.259 | 0.26 | 0.253 | 0.504 | 0.507 | 0.498 | 0.354 | 0.554 | 0.722 | 0.517 | 0.447 | 1.04 | 1.18 | 1.01 | 0.675 |
| NCI-H1755 | 0.743 | 0.667 | 0.748 | 0.565 | 0.647 | 0.549 | 0.582 | 0.513 | 0.756 | 0.768 | 0.671 | 0.699 | 0.68 | 0.632 | 0.551 | 0.587 | 1.02 | 1.05 | 0.965 | 0.962 |
| HCC-15 | 0.668 | 0.609 | 0.406 | 0.369 | 0.397 | 0.394 | 0.28 | 0.235 | 0.362 | 0.387 | 0.309 | 0.295 | 0.469 | 0.519 | 0.442 | 0.288 | 0.825 | 0.9 | 0.657 | 0.8 |
| NCI-H2087 | 0.212 | 0.344 | 0.189 | 0.151 | 0.26 | 0.242 | 0.223 | 0.259 | 0.246 | 0.211 | 0.176 | 0.133 | 0.531 | 0.361 | 0.404 | 0.317 | 1.03 | 1.41 | 1.07 | 0.805 |
| NCI-H1650 | 0.41 | 0.39 | 0.438 | 0.432 | 0.364 | 0.377 | 0.408 | 0.346 | 0.54 | 0.649 | 0.612 | 0.643 | 0.509 | 0.465 | 0.388 | 0.384 | 0.685 | 0.768 | 0.687 | 0.784 |
| LK-2 | 0.238 | 0.302 | 0.197 | 0.163 | 0.174 | 0.165 | 0.186 | 0.168 | 0.826 | 0.775 | 0.694 | 0.602 | 0.302 | 0.543 | 0.315 | 0.174 | 1.03 | 1.05 | 0.863 | 0.854 |
| HCC-78 | 0.604 | 0.607 | 0.6 | 0.402 | 1.52 | – | 0.38 | 0.365 | 0.746 | 0.832 | 0.786 | 0.907 | 0.7 | – | 0.753 | 0.524 | 0.703 | 0.376 | 0.88 | 0.703 |
| NCI-H1666 | 0.659 | 0.719 | 0.702 | 0.574 | 0.636 | 0.631 | 0.647 | 0.594 | 0.925 | 0.79 | 0.807 | 0.892 | 0.586 | 0.595 | 0.568 | 0.563 | 0.633 | 0.577 | 0.354 | 0.386 |
| EKVX | 0.318 | 0.334 | 0.249 | 0.195 | 0.405 | 0.395 | 0.344 | 0.329 | 0.326 | 0.398 | 0.275 | 0.289 | 0.24 | 0.245 | 0.204 | 0.256 | 0.2 | 0.207 | 0.17 | 0.179 |
| COR-L 105 | 0.681 | 0.656 | 0.62 | 0.541 | 0.419 | 0.309 | 0.403 | 0.345 | 0.451 | 0.439 | 0.381 | 0.433 | 0.51 | 0.472 | 0.392 | 0.489 | 0.382 | 0.42 | 0.317 | 0.335 |
| NCI-H322M | 0.735 | 0.696 | 0.656 | 0.43 | 0.455 | 0.552 | 0.449 | 0.455 | 0.475 | 0.505 | 0.495 | 0.546 | 0.756 | 0.822 | 0.725 | 0.769 | 0.599 | 0.634 | 0.604 | 0.68 |
| HARA | 0.605 | 0.64 | 0.453 | 0.307 | 0.0977 | 0.106 | 0.267 | 0.094 | 0.63 | 0.553 | 0.677 | 0.788 | 0.432 | 0.577 | 0.386 | 0.415 | 0.774 | 0.81 | 0.567 | 0.51 |
| NCI-H2023 | 0.211 | 0.2 | 0.215 | 0.148 | 0.345 | 0.347 | 0.239 | 0.197 | 0.514 | 0.532 | 0.38 | 0.376 | 0.398 | 0.416 | 0.343 | 0.271 | 0.827 | 0.818 | 0.708 | 0.492 |
| NCI-H1437 | 0.499 | 0.534 | 0.536 | 0.438 | 0.408 | 0.425 | 0.396 | 0.349 | 0.577 | 0.51 | 0.44 | 0.403 | 0.297 | 0.265 | 0.306 | 0.301 | 0.778 | 0.783 | 0.815 | 0.475 |
